Experimental data reported in ChEMBL document CHEMBL3734705, “Synthesis and in vitro cytotoxicity of novel C-12 substituted-14-deoxy-andrographolide derivatives as potent anti-cancer agents” (2015).

Experiments:
[1] = system: HT-29; test: Cytotoxicity against human HT-29 cells assessed as growth level at 10 uM after 48 hrs by SRB assay; assay type: functional
[2] = Cytotoxicity against human SNB19 cells assessed as growth level at 10 uM after 48 hrs by SRB assay; assay type: functional, SNB-19
[3] = system: EKVX; test: Cytotoxicity against human EKVX cells assessed as growth inhibition at 10 uM after 48 hrs by SRB assay; assay type: functional; settings: read-out: GI
[4] = Cytotoxicity against human SF539 cells assessed as growth inhibition at 10 uM after 48 hrs by SRB assay; assay type: functional; settings: SF-539, 48 h, read-out: GI
[5] = Cytotoxicity against human UO31 cells assessed as growth level at 10 uM after 48 hrs by SRB assay; assay type: functional, UO-31
[6] = Cytotoxicity against human DU145 cells assessed as growth inhibition at 10 uM after 48 hrs by SRB assay; assay type: functional; settings: DU-145, 48 h, read-out: GI
[7] = system: SR; test: Cytotoxicity against human SR cells assessed as growth level at 10 uM after 48 hrs by SRB assay; assay type: functional
[8] = system: SR; test: Cytotoxicity against human SR cells assessed as growth inhibition at 10 uM after 48 hrs by SRB assay; assay type: functional; settings: read-out: GI
[9] = system: MDA-MB-231; test: Cytotoxicity against human MDA-MB-231 cells assessed as growth inhibition at 10 uM after 48 hrs by SRB assay; assay type: functional; settings: MDA-MB-231, 48 h, read-out: GI
[10] = Cytotoxicity against human HOP62 cells assessed as growth inhibition at 10 uM after 48 hrs by SRB assay; assay type: functional; settings: HOP-62, 48 h, read-out: GI
[11] = Cytotoxicity against human PC3 cells assessed as growth level at 10 uM after 48 hrs by SRB assay; assay type: functional, PC-3
[12] = Cytotoxicity against human OVCAR4 cells assessed as growth inhibition at 10 uM after 48 hrs by SRB assay; assay type: functional; settings: OVCAR-4, 48 h, read-out: GI
[13] = system: MDA-MB-231; test: Cytotoxicity against human MDA-MB-231 cells assessed as growth level at 10 uM after 48 hrs by SRB assay; assay type: functional
[14] = Cytotoxicity against human UO31 cells assessed as growth inhibition at 10 uM after 48 hrs by SRB assay; assay type: functional; settings: UO-31, 48 h, read-out: GI
[15] = system: T47D; test: Cytotoxicity against human T47D cells assessed as growth level at 10 uM after 48 hrs by SRB assay; assay type: functional
[16] = Cytotoxicity against human OVCAR3 cells assessed as growth inhibition at 10 uM after 48 hrs by SRB assay; assay type: functional; settings: OVCAR-3, 48 h, read-out: GI
[17] = Cytotoxicity against human Hs578T cells assessed as growth level at 10 uM after 48 hrs by SRB assay; assay type: functional, Hs-578T
[18] = Cytotoxicity against human HCC2998 cells assessed as growth level at 10 uM after 48 hrs by SRB assay; assay type: functional, HCC 2998
[19] = Cytotoxicity against human HOP92 cells assessed as growth level at 10 uM after 48 hrs by SRB assay; assay type: functional, HOP-92
[20] = Cytotoxicity against human HL-60(TB) cells assessed as growth inhibition at 10 uM after 48 hrs by SRB assay; assay type: functional; settings: HL-60, 48 h, read-out: GI
[21] = Cytotoxicity against human SF268 cells assessed as growth inhibition at 10 uM after 48 hrs by SRB assay; assay type: functional; settings: SF-268, 48 h, read-out: GI
[22] = system: SK-MEL-5; test: Cytotoxicity against human SK-MEL-5 cells assessed as growth level at 10 uM after 48 hrs by SRB assay; assay type: functional
[23] = Cytotoxicity against human Caki1 cells assessed as growth level at 10 uM after 48 hrs by SRB assay; assay type: functional, CAKI-1
[24] = Cytotoxicity against human SKOV3 cells assessed as growth inhibition at 10 uM after 48 hrs by SRB assay; assay type: functional; settings: SK-OV-3, 48 h, read-out: GI
[25] = Cytotoxicity against human MOLT4 cells assessed as growth level at 10 uM after 48 hrs by SRB assay; assay type: functional, MOLT-4
[26] = system: SK-MEL-5; test: Cytotoxicity against human SK-MEL-5 cells assessed as growth inhibition at 10 uM after 48 hrs by SRB assay; assay type: functional; settings: SK-MEL-5, 48 h, read-out: GI
[27] = Cytotoxicity against human NCI-ADR-RES cells assessed as growth inhibition at 10 uM after 48 hrs by SRB assay; assay type: functional; settings: read-out: GI
[28] = Cytotoxicity against human SNB75 cells assessed as growth inhibition at 10 uM after 48 hrs by SRB assay; assay type: functional; settings: SNB-75, 48 h, read-out: GI
[29] = system: T47D; test: Cytotoxicity against human T47D cells assessed as growth inhibition at 10 uM after 48 hrs by SRB assay; assay type: functional; settings: read-out: GI
[30] = Cytotoxicity against human COLO205 cells assessed as growth level at 10 uM after 48 hrs by SRB assay; assay type: functional, COLO 205
[31] = system: NCI-H460; test: Cytotoxicity against human NCI-H460 cells assessed as growth inhibition at 10 uM after 48 hrs by SRB assay; assay type: functional; settings: NCI-H460, 48 h, read-out: GI
[32] = Cytotoxicity against human Caki1 cells assessed as growth inhibition at 10 uM after 48 hrs by SRB assay; assay type: functional; settings: CAKI-1, 48 h, read-out: GI
[33] = Cytotoxicity against human HOP62 cells assessed as growth level at 10 uM after 48 hrs by SRB assay; assay type: functional, HOP-62
[34] = system: A549; test: Cytotoxicity against human A549 cells assessed as growth level at 10 uM after 48 hrs by SRB assay; assay type: functional
[35] = system: NCI-H23; test: Cytotoxicity against human NCI-H23 cells assessed as growth inhibition at 10 uM after 48 hrs by SRB assay; assay type: functional; settings: NCI-H23, 48 h, read-out: GI
[36] = system: A549; test: Cytotoxicity against human A549 cells assessed as growth inhibition at 10 uM after 48 hrs by SRB assay; assay type: functional; settings: A549, 48 h, read-out: GI
[37] = Cytotoxicity against human OVCAR8 cells assessed as growth level at 10 uM after 48 hrs by SRB assay; assay type: functional, OVCAR-8
[38] = system: ACHN; test: Cytotoxicity against human ACHN cells assessed as growth level at 10 uM after 48 hrs by SRB assay; assay type: functional
[39] = system: NCI-H322M; test: Cytotoxicity against human NCI-H322M cells assessed as growth level at 10 uM after 48 hrs by SRB assay; assay type: functional
[40] = system: EKVX; test: Cytotoxicity against human EKVX cells assessed as growth level at 10 uM after 48 hrs by SRB assay; assay type: functional
[41] = system: SN12C; test: Cytotoxicity against human SN12C cells assessed as growth inhibition at 10 uM after 48 hrs by SRB assay; assay type: functional; settings: read-out: GI
[42] = system: HT-29; test: Cytotoxicity against human HT-29 cells assessed as growth inhibition at 10 uM after 48 hrs by SRB assay; assay type: functional; settings: HT-29, 48 h, read-out: GI
[43] = Cytotoxicity against human HOP92 cells assessed as growth inhibition at 10 uM after 48 hrs by SRB assay; assay type: functional; settings: HOP-92, 48 h, read-out: GI
[44] = Cytotoxicity against human Hs578T cells assessed as growth inhibition at 10 uM after 48 hrs by SRB assay; assay type: functional; settings: Hs-578T, read-out: GI
[45] = system: KM12; test: Cytotoxicity against human KM12 cells assessed as growth level at 10 uM after 48 hrs by SRB assay; assay type: functional

With C=C1CC[C@@H]2[C@](C)(COC(C)=O)[C@H](OC(C)=O)CC[C@@]2(C)[C@@H]1CC(NCCCC)C1=CCOC1=O (mixture of isomers) the Activity [1] was 82.56%, the Activity [2] was 87.32% and the inhibition of growth at 10 µM [3] was 28.6%. For the same molecule, the inhibition of growth at 10 µM [4] was 9.46%, the Activity [5] was 84% and the inhibition of growth at 10 µM [6] was 0.82%. It also gave an Activity [7] of 48.54%, an inhibition of growth at 10 µM [8] of 51.5% and an inhibition of growth at 10 µM [9] of 20.9%. It also gave an inhibition of growth at 10 µM [10] of 6.04%, an Activity [11] of 51.19% and an inhibition of growth at 10 µM [12] of 14.3%. For the same molecule, the Activity [13] was 79.12%, the inhibition of growth at 10 µM [14] was 16% and the Activity [15] was 71.96%. For the same molecule, the inhibition of growth at 10 µM [16] was 8.88%, the Activity [17] was 97.68% and the Activity [18] was 92.1%. For the same molecule, the Activity [19] was 53.32%, the inhibition of growth at 10 µM [20] was 6.18% and the inhibition of growth at 10 µM [21] was 23%. It also gave an Activity [22] of 76.02%, an Activity [23] of 90.95% and an inhibition of growth at 10 µM [24] of 7.58%. The Activity [25] was 55.54%, the inhibition of growth at 10 µM [26] was 24% and the inhibition of growth at 10 µM [27] was 12.7%. For the same molecule, the inhibition of growth at 10 µM [28] was 22.1%, the inhibition of growth at 10 µM [29] was 28% and the Activity [30] was 82.08%. The inhibition of growth at 10 µM [31] was 8.38%, the inhibition of growth at 10 µM [32] was 9.05% and the Activity [33] was 93.96%. For the same molecule, the Activity [34] was 81.23%, the inhibition of growth at 10 µM [35] was 10.3% and the inhibition of growth at 10 µM [36] was 18.8%. It also gave an Activity [37] of 89.63%, an Activity [38] of 99.42% and an Activity [39] of 96.22%. It also gave an Activity [40] of 71.43%, an inhibition of growth at 10 µM [41] of 10.2% and an inhibition of growth at 10 µM [42] of 17.4%. For the same molecule, the inhibition of growth at 10 µM [43] was 46.7%, the inhibition of growth at 10 µM [44] was 2.32% and the Activity [45] was 92.79%.
